Experimental data published in patent publication US20180179198A1, “TRICYCLIC MODULATORS OF TNF SIGNALING” (AbbVie Inc., priority 2015, published 2018).

Molecular target: TNFα trimer (Homo sapiens, UniProt P01375)
Assay: TNFα FP Competitive Binding Assay
Details: fluorescence polarization competition; 20 nM TNFα trimer, 1 nM OregonGreen488 probe; read-out: TNF IC50 (TNFα FP binding assay IC50)
Summary of the method: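 Compounds, 12-point 1:3 dilutions topping at 100 μM (2.0% DMSO) or 338 μM (3.4% DMSO) final, compete with 1 nM fluorescent probe for 20 nM TNFα trimer in HEPES/NaCl/EDTA/Triton buffer. After 18-24 h incubation at 37 °C plus 1 h rt equilibration, background-subtracted polarization is read and fitted with variable slope.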

Sequence of TNFα trimer (P01375 77-233 limits assumed): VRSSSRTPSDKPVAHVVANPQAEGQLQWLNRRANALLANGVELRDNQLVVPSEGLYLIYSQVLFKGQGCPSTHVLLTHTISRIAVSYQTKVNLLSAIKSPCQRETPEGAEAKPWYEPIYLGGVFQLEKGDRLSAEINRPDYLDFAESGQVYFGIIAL

IC50 [µM] | SMILES
1 to 10 | O=c1cc(-c2ccc3nc4n(c3n2)[C@@H](c2ccccc2)CC4)ccn1CC1CCC(F)(F)CC1 [Example 53, (R)-1-((4,4-Difluorocyclohexyl)methyl)-4-(8-phenyl-7,8-dihydro-6H-pyrrolo[2′,1′:2,3]imidazo[4,5-b]pyridin-2-yl)pyridin-2(1H)-one]
< 1 | OC1CCC(Oc2cc(-c3ccc4nc5n(c4n3)C3(COC5)COc4ccccc43)ccn2)CC1 (centres unmarked) [Example 54, 4-((4-(6′,8′-dihydro-2H-spiro[benzofuran-3,9′-pyrido[3′,2′:4,5]imidazo[2,1-c][1,4]oxazin]-2′-yl)pyridin-2-yl)oxy)cyclohexanol]
< 1 | OC1CCN(c2ncc(-c3nc4c(cc3F)nc3n4[C@@H](c4ccccc4)CC3)cn2)CC1 [Example 55, (R)-1-(5-(3-fluoro-8-phenyl-7,8-dihydro-6H-pyrrolo[2′,1′:2,3]imidazo[4,5-b]pyridin-2-yl)pyrimidin-2-yl)piperidin-4-ol]
1 to 10 | c1ccc(C2OCCc3nc4ccc(-c5cnc(N6CCOCC6)nc5)nn4c32)cc1 (centres unmarked) [Example 56, 2-(2-morpholinopyrimidin-5-yl)-9-phenyl-7,9-dihydro-6H-pyrano[4′,3′:4,5]imidazo[1,2-b]pyridazine]
< 1 | COc1ccccc1C1CCOc2nc3ccc(-c4ccnc(O[C@H]5CC[C@H](O)CC5)c4)cn3c21 (stereo partly drawn) [Example 57, trans-4-((4-(4-(2-Methoxyphenyl)-3,4-dihydro-2H-pyrano[2′,3′:4,5]imidazo[1,2-a]pyridin-7-yl)pyridin-2-yl)oxy)cyclohexanol]
1 to 10 | c1ccc2c(c1)OCCC21COCc2nc3ccc(-c4cnc(N5CCNCC5)nc4)nc3n21 (centres unmarked) [Example 59, 2′-(2-(Piperazin-1-yl)pyrimidin-5-yl)-6′H,8′H-spiro[chromane-4,9′-pyrido[3′,2′:4,5]imidazo[2,1-c][1,4]oxazine]]
1 to 10 | c1ccc2c(c1)OCCC21COCc2nc3ccc(-c4cnc(NC5CCOC5)nc4)nc3n21 (centres unmarked) [Example 60, 5-(6′H,8′H-Spiro[chromane-4,9′-pyrido[3′,2′:4,5]imidazo[2,1-c][1,4]oxazin]-2′-yl)-N-(tetrahydrofuran-3-yl)pyrimidin-2-amine]
1 to 10 | c1ccc([C@H]2CCc3nc4ccc(-c5ccnc(OCC6CCOCC6)c5)nc4n32)cc1 [Example 61, (R)-8-Phenyl-2-(2-((tetrahydro-2H-pyran-4-yl)methoxy)pyridin-4-yl)-7,8-dihydro-6H-pyrrolo[2′,1′:2,3]imidazo[4,5-b]pyridine]
10 to 100 | CC1(C)C=C(c2ccc3nc4n(c3n2)[C@@H](c2ccccc2)CC4)CN1 [Example 62]
1 to 10 | CC(C)(O)c1ncc(-c2ccc3nc4n(c3n2)C(c2ccccc2)C2CC4C2)cn1 (centres unmarked) [Example 63, 2-(5-(9-Phenyl-6,7,8,9-tetrahydro-6,8-methanoimidazo[1,2-a:5,4-b′]dipyridin-2-yl)pyrimidin-2-yl)propan-2-ol]
1 to 10 | OC1CCN(c2ncc(-c3ccc4nc5n(c4n3)C(c3ccccc3)C3CC5C3)cn2)CC1 (centres unmarked) [Example 64, 1-(5-(9-Phenyl-6,7,8,9-tetrahydro-6,8-methanoimidazo[1,2-a:5,4-b′]dipyridin-2-yl)pyrimidin-2-yl)piperidin-4-ol]
1 to 10 | CC1(C)C=C(c2ccc3nc4n(c3n2)C2(COC4)COc3ccccc32)CN1 (centres unmarked) [Example 65, 2′-(5,5-Dimethyl-2,5-dihydro-1H-pyrrol-3-yl)-6′,8′-dihydro-2H-spiro[benzofuran-3,9′-pyrido[3′,2′:4,5]imidazo[2,1-c][1,4]oxazine]]
1 to 10 | c1ccc2c(c1)OCC21COCc2nc3ccc(-c4cnc(N5CCNCC5)nc4)nc3n21 (centres unmarked) [Example 66, 2′-(2-(Piperazin-1-yl)pyrimidin-5-yl)-2H,6′H,8′H-spiro[benzofuran-3,9′-pyrido[3′,2′:4,5]imidazo[2,1-c][1,4]oxazine]]
< 1 | C[C@H]1CN(c2ncc(-c3ccc4nc5n(c4n3)C3(COC5)COc4ccccc43)cn2)CCN1C(=O)CO (stereo partly drawn) [Example 67, 1-((2S)-4-(5-(2H,6′H,8′H-Spiro[benzofuran-3,9′-pyrido[3′,2′:4,5]imidazo[2,1-c][1,4]oxazin]-2′-yl)pyrimidin-2-yl)-2-methylpiperazin-1-yl)-2-hydroxyethan-1-one]
< 1 | CC(C)(O)c1ncc(-c2ccc3nc4n(c3n2)C2(CCc3ccccc32)COC4)cn1 (centres unmarked) [Example 68, 2-(5-(2,3-Dihydro-6′H,8′H-spiro[indene-1,9′-pyrido[3′,2′:4,5]imidazo[2,1-c][1,4]oxazin]-2′-yl)pyrimidin-2-yl)propan-2-ol]
1 to 10 | CC(C)(O)c1ncc(-c2ccc3nc4n(c3n2)C2(COC4)CC(=O)c3ccccc32)cn1 (centres unmarked) [Example 69, 2′-(2-(2-Hydroxypropan-2-yl)pyrimidin-5-yl)-6′,8′-dihydrospiro[indene-1,9′-pyrido[3′,2′:4,5]imidazo[2,1-c][1,4]oxazin]-3(2H)-one]
10 to 100 | CC(C)(O)c1ncc(-c2ccc3nc4n(c3n2)[C@@H](c2ccccc2)[C@@H]2C[C@H]4O2)cn1 [Example 70, 2-(5-((6R,8S,9S)-9-Phenyl-6,7,8,9-tetrahydro-6,8-epoxyimidazo[1,2-a:5,4-b′]dipyridin-2-yl)pyrimidin-2-yl)propan-2-ol]
10 to 100 | OC1CCN(c2ncc(-c3ccc4nc5n(c4n3)[C@@H](c3ccccc3)[C@@H]3C[C@H]5O3)cn2)CC1 [Example 71, 1-(5-((6R,8S,9S)-9-Phenyl-6,7,8,9-tetrahydro-6,8-epoxyimidazo[1,2-a:5,4-b′]dipyridin-2-yl)pyrimidin-2-yl)piperidin-4-ol]
1 to 10 | CC(C)(O)c1ncc(-c2ccc3nc4n(c3n2)C2(CCc3ccccc32)COC4O)cn1 (centres unmarked) [Example 72, 2′-(2-(2-Hydroxypropan-2-yl)pyrimidin-5-yl)-2,3-dihydro-6′H,8′H-spiro[indene-1,9′-pyrido[3′,2′:4,5]imidazo[2,1-c][1,4]oxazin]-6′-ol]

IC50 [µM] | SMILES
1 to 10 | C1=C(c2ccc3nc4n(c3n2)C2(COC4)COc3ccccc32)CCN(c2ccncn2)C1 (centres unmarked) [Example 73, 2′-(1-(Pyrimidin-4-yl)-1,2,3,6-tetrahydropyridin-4-yl)-2H,6′H,8′H-spiro[benzofuran-3,9′-pyrido[3′,2′:4,5]imidazo[2,1-c][1,4]oxazine]]
< 1 | O[C@H]1CC[C@H](Oc2cc(-c3ccc4nc5n(c4n3)[C@@]3(COC5)COc4ccccc43)ccn2)CC1 [Example 74, (1S,4r)-4-((4-((S)-6′,8′-Dihydro-2H-spiro[benzofuran-3,9′-pyrido[3′,2′:4,5]imidazo[2,1-c][1,4]oxazin]-2′-yl)pyridin-2-yl)oxy)cyclohexanol]
< 1 | C[C@H]1CN(c2ncc(-c3ccc4nc5n(c4n3)[C@@]3(COC5)COc4ccccc43)cn2)CCN1C(=O)CO [Example 75, 1-((S)-4-(5-((S)-6′,8′-Dihydro-2H-spiro[benzofuran-3,9′-pyrido[3′,2′:4,5]imidazo[2,1-c][1,4]oxazin]-2′-yl)pyrimidin-2-yl)-2-methylpiperazin-1-yl)-2-hydroxyethanone]
1 to 10 | C1=C(c2ccc3nc4n(c3n2)[C@@H](c2ccccc2)CC4)CCN(c2ccncn2)C1 [Example 76, (R)-8-Phenyl-2-(1-(pyrimidin-4-yl)-1,2,3,6-tetrahydropyridin-4-yl)-7,8-dihydro-6H-pyrrolo[2′,1′:2,3]imidazo[4,5-b]pyridine]
< 1 | CC1(c2ccccc2)CCc2nc3ccc(-c4cnc(N5CCC(O)CC5)nc4)nc3n21 (centres unmarked) [Example 77, 1-(5-(8-Methyl-8-phenyl-7,8-dihydro-6H-pyrrolo[2′,1′:2,3]imidazo[4,5-b]pyridin-2-yl)pyrimidin-2-yl)piperidin-4-ol]
< 1 | CC(C)(N)c1ncc(-c2ccc3nc4n(c3n2)C2(CCc3ccccc32)COC4)cn1 (centres unmarked) [Example 80, 2-(5-(2,3-Dihydro-6′H,8′H-spiro[indene-1,9′-pyrido[3′,2′:4,5]imidazo[2,1-c][1,4]oxazin]-2′-yl)pyrimidin-2-yl)propan-2-amine]
1 to 10 | CC(C)(O)c1ncc(-c2ccc3nc4n(c3n2)C2(COC4)CC(O)c3ccccc32)cn1 (centres unmarked) [Example 81, 2′-(2-(2-Hydroxypropan-2-yl)pyrimidin-5-yl)-2,3,6′,8′-tetrahydrospiro[indene-1,9′-pyrido[3′,2′:4,5]imidazo[2,1-c][1,4]oxazin]-3-ol]
< 1 | FC1(F)CCN(c2ncc(-c3ccc4nc5n(c4n3)C(c3ccccc3)COC5)cn2)CC1 (centres unmarked) [Example 82]
< 1 | O[C@H]1CC[C@H](Oc2cc(-c3ccc4nc5n(c4n3)[C@@H](c3ccccc3)CC5)ccn2)CC1 [Example 83, (1R,4R)-4-((4-((R)-8-Phenyl-7,8-dihydro-6H-pyrrolo[2′,1′:2,3]imidazo[4,5-b]pyridin-2-yl)pyridin-2-yl)oxy)cyclohexanol]
< 1 | OC1CC2(CCN(c3ncc(-c4ccc5nc6n(c5c4)[C@@H](c4ccccc4)CC6)cn3)CC2)C1 [F.1]
< 1 | OC1CCN(c2ncc(-c3ccc4nc5n(c4c3)[C@@H](c3ccccc3)CC5)cn2)CC1(F)F (some centres unmarked) [F.2]
< 1 | OC1CCN(c2ncc(-c3ccc4nc5n(c4c3)[C@@H](c3ccccc3)CC5)cn2)CC1 [F.3]
< 1 | O=S1(=O)CCN(c2ncc(-c3ccc4nc5n(c4c3)[C@@H](c3ccccc3)CC5)cn2)CC1 [F.4]
1 to 10 | O=C1NCCC12CCN(c1ncc(-c3ccc4nc5n(c4c3)[C@@H](c3ccccc3)COC5)cn1)C2 (some centres unmarked) [G.1]
< 1 | CC1CN(c2ncc(-c3ccc4nc5n(c4c3)[C@@H](c3ccccc3)COC5)cn2)CCO1 (some centres unmarked) [G.2]
1 to 10 | O=C(O)CC1CCCN(c2ncc(-c3ccc4nc5n(c4c3)[C@@H](c3ccccc3)COC5)cn2)C1 (some centres unmarked) [G.3]
< 1 | OCC1CCCN(c2ncc(-c3ccc4nc5n(c4c3)[C@@H](c3ccccc3)COC5)cn2)C1 (some centres unmarked) [G.4]
1 to 10 | OCCCN1CCN(c2ncc(-c3ccc4nc5n(c4c3)[C@@H](c3ccccc3)COC5)cn2)CC1 [G.5]
1 to 10 | O=C1NCNC12CCN(c1ncc(-c3ccc4nc5n(c4c3)[C@@H](c3ccccc3)COC5)cn1)CC2 [G.6]
